In PMC12833730, “Discovery of a First‐in‐Class Covalent Allosteric SHP1 Inhibitor with Immunotherapeutic Activity” (Angewandte Chemie (International Ed. in English), 2025):
Entries after “also recorded” stand apart in the source; their conditions may differ.

Experiments:
[1] = target: T1, SHP1 (Homo sapiens, UniProt P29350); test: Vanadate protection jump-dilution experiment; assay type: biochemical
T1 construct: SHP1, residues 245-543; made in house; host or cells: E. coli BL21(DE3)
Description: To further understand the mode of M029 action and ascertain whether M029 binds the SHP1 active site or a yet undefined novel site in SHP1, we performed a vanadate (VO4 ^3−) protection experiment. Vanadate is a reversible and competitive PTP inhibitor,^[ [76], [77] ^] and thus excessive vanadate would be expected to fully occupy the PTP active site and prevent covalent modifications of residues within the active site pocket. In this assay, SHP1 was co‐incubated with 30 µM M029 and 500 µM sodium orthovanadate or vehicle control for 30 min. The SHP1‐inhibitor complex was then rapidly diluted 100‐fold into a buffered solution containing 10 mM pNPP, and immediately, the absorbance at 405 nm was monitored over time to determine the remaining phosphatase activity.

[2] = system: MC38 tumors; test: MC38 tumors in nude mice; assay type: in vivo; details: 25 mg/kg
Text: To further establish whether the inhibitory effects of M029 on tumor progression could be attributable to enhanced antitumor immune responses, we treated MC38 tumors in nude mice. […] To evaluate the importance of CD8^+ T and NK cells in M029‐induced antitumor activity, we induced CD8^+ T cell or NK cell depletion in the MC38 syngeneic model using anti‐CD8 or anti‐NK1.1 antibodies as described in Figure 6c. […] These findings are consistent with the known role of SHP1 in T cells and with our in vitro data that indicate M029 enhances T cell activation with no direct effect on tumor cells. […] These findings align with previous reports that activated CD8^+ T cells recruit NK cells to tumors through releasing cytokines and chemokines like IFN‐γ.^[ [92] ^] The observed changes in immune activity induced by M029, such as increased tumor infiltration of cytotoxic CD8^+ T cells, enhanced T cell cytotoxicity and effector function, as well as improved NK cell infiltration and activation, collectively contribute to the anticancer effects exerted by M029 treatment.
Figure 6 Cytotoxic T‐cell activity is necessary for M029 antitumor activity. […] C57BL/6 mice were injected with anti‐CD8 or anti‐NK1.1 antibodies every 3–4 days for 8 days after tumor inoculation. […]

[3] = target: T1, SHP1; test: Thermal shift assay; assay type: binding; details: vs DMSO control
Text: Building on the results from the SAR “by‐catalog” study, the following medicinal chemistry effort was prioritized on a systematic survey of the central phenyl scaffold, the sulfonamide linker, and the distal aryl moiety with the goal of a multiparameter optimization of potency and selectivity for SHP1 inhibition as well as drug‐like properties such as aqueous solubility and cell permeability. Additionally, given the crucial requirement for targeted covalent inhibitors to maintain tempered reactivity that enables selective target engagement and reduces cross‐reactivity to by‐standing nucleophiles in the cellular milieu,^[ [74], [75] ^] the medicinal chemistry campaign also sought to lower SHP1 covalent inhibitor reactivity with GSH and cytotoxicity. Careful assessment and evaluation of the SAR and other desirable drug‐like attributes of all synthesized molecules led to the identification of M029 (Figure 2a and Figure S2D, manuscript in preparation). […] To determine the selectivity of M029 for SHP1, we measured the IC50 value for M029‐mediated inhibition of a number of PTPs after a 60‐min preincubation. […]
The mixtures were centrifuged to remove the unfolded SHP1 proteins, and the supernatants were spiked with a control protein CDC14A, followed by loading into SDS‐PAGE gels to quantify the relative SHP1 level.

T1 sequence (P29350 245-543): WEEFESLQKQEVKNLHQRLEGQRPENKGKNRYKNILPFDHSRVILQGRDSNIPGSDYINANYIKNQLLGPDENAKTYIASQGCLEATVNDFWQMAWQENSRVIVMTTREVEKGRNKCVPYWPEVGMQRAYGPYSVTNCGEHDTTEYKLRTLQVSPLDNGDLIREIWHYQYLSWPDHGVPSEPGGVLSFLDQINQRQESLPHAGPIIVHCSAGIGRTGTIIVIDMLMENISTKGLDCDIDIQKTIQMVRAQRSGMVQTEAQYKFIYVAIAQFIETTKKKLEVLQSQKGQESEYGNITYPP

N#Cc1ccsc1NS(=O)(=O)c1ccc(NC(=O)CCl)cc1 [M029, 2-Chloro-N-(4-(N-(3-cyanothiophen-2-yl)sulfamoyl)phenyl)acetamide]
SHP1 protection from inactivation by vanadate ([1]; 30 µM M029 + 500 µM sodium orthovanadate, 30 min, 100-fold dilution): did not show a significant difference; also recorded: not protected from M029 inactivation
residual phosphatase activity after 100-fold jump dilution, compound alone ([1]; 30 µM M029, 30 min): Little residual phosphatase activity
MC38 tumor growth in nude mice [2]: ineffective in inhibiting tumor growth; also recorded: no significant
decrease in SHP1 protein melting temperature [3]: 1.8 °C
